From ChEMBL document CHEMBL1141796, “Hirsutide, a cyclic tetrapeptide from a spider-derived entomopathogenic fungus, Hirsutella sp” (J Nat Prod, 2005)
Calls of active or inactive are those of the source.

How the values were obtained:
[1] = system: P388; assay: Cytotoxicity against mouse P388 cells; format: functional, cell-based
[2] = system: Candida albicans; assay: Antifungal activity against Candida albicans by agar diffusion assay; format: functional, organism-based
[3] = system: Amorphotheca resinae; assay: Antifungal activity against Cladosporium resinae by agar diffusion assay; format: functional, organism-based
[4] = system: Escherichia coli; assay: Antibacterial activity against Escherichia coli by agar diffusion assay; format: functional, organism-based
[5] = system: Bacillus subtilis; assay: Antibacterial activity against Bacillus subtilis by agar diffusion assay; format: functional, organism-based
[6] = system: Trichophyton mentagrophytes; assay: Antifungal activity against Trichophyton mentagrophytes by agar diffusion assay; format: functional, organism-based

CC(=O)O[C@@H]1/C=C/[C@@](C)(O)C(=O)[C@@H](C)C/C=C/[C@H]2[C@@H]3O[C@]3(C)[C@@H](C)[C@H]3[C@H](Cc4ccccc4)NC(=O)[C@@]312 [CYTOCHALASIN Q]
inactive: Activity [2] | Activity [3] | Activity [4] | Activity [5] | Activity [6]
2400 nM: IC50 [1]
